The NIST ThermoML archive (doi:10.1021/je201299u)
± gives the expanded uncertainty stated by the source.

Conditions: Liquid, Ebulliometric method (Recirculating still)

Structure (SMILES)	vapor or sublimation pressure (110.01 K)	vapor or sublimation pressure (112.98 K)	vapor or sublimation pressure (114.99 K)	vapor or sublimation pressure (115.07 K)	vapor or sublimation pressure (117 K)	vapor or sublimation pressure (118.99 K)	vapor or sublimation pressure (120.11 K)	vapor or sublimation pressure (120.96 K)	vapor or sublimation pressure (123.01 K)	vapor or sublimation pressure (130.15 K)	vapor or sublimation pressure (135.09 K)
C [methane]	88.2 ± 1.4 kPa	112.74 ± 1.4 kPa	132.11 ± 1.4 kPa	134.08 ± 1.3 kPa	153.92 ± 1.4 kPa	178.11 ± 1.5 kPa	194.65 ± 1.3 kPa	204.78 ± 1.5 kPa	235.61 ± 1.6 kPa	374.77 ± 1.4 kPa	496.11 ± 1.4 kPa
N#N [nitrogen]	1466.7 ± 6 kPa	1735.2 ± 7 kPa	1936 ± 7.8 kPa		2153.3 ± 8.7 kPa	2385.7 ± 9.6 kPa		2633.9 ± 11 kPa	2913 ± 12 kPa		
